The assay relates to MV-4-11 cells. As to the kind of experiment: Gene expression microarray analysis (Affymetrix PrimeView) and GSEA. The note with it: ProbeSet 11743929_at; LIST B. The assay is classed as cell-based, human. Set-up: RFU PODN (11730768_x_at) / Fold change /veh PODN (11730768_x_at) / RFU LINC00158 (11744669_a_at) / Fold change /veh LINC00158 (11744669_a_at) / RFU DUSP10 (11751237_a_at) / Fold change /veh DUSP10 (11751237_a_at) / RFU ID3 (11757404_x_at) / Fold change /veh ID3 (11757404_x_at) / RFU PLEKHG5 (11737974_s_at) / Fold change /veh PLEKHG5 (11737974_s_at) / RFU LRRC4B (11730491_at) / Fold change /veh LRRC4B (11730491_at) / RFU GIMAP4 (11747438_a_at) / Fold change /veh GIMAP4 (11747438_a_at) / RFU KRT8 (11758183_x_at) / Fold change /veh KRT8 (11758183_x_at) / RFU CNN1 (11734310_a_at) / Fold change /veh CNN1 (11734310_a_at) / RFU VPS37D (11726825_at) / Fold change /veh VPS37D (11726825_at) / RFU C10orf10 (11716522_x_at) / Fold change /veh C10orf10 (11716522_x_at) / RFU KIR2DL2 /// KIR2DL4 /// KIR2DL5A /// KIR2DL5B /// KIR2DS1 /// KIR2DS2 /// KIR2DS3 /// KIR2DS4 /// KIR3DL3 /// KIR3DL3 /// KIR3DS1 (11738374_at) / Fold change /veh KIR2DL2 /// KIR2DL4 /// KIR2DL5A /// KIR2DL5B /// KIR2DS1 /// KIR2DS2 /// KIR2DS3 /// KIR2DS4 /// KIR3DL3 /// KIR3DL3 /// KIR3DS1 (11738374_at) / RFU C1QL1 (11718748_at) / Fold change /veh C1QL1 (11718748_at) / RFU TMPRSS4 (11747572_a_at) / Fold change /veh TMPRSS4 (11747572_a_at) / RFU HAMP (11756126_x_at) / Fold change /veh HAMP (11756126_x_at) / RFU RNFT2 (11725882_a_at) / Fold change /veh RNFT2 (11725882_a_at) / RFU NR4A2 (11747474_a_at) / Fold change /veh NR4A2 (11747474_a_at) / RFU ABCC12 (11746883_a_at) / Fold change /veh ABCC12 (11746883_a_at) / RFU TMEM136 (11760407_x_at) / Fold change /veh TMEM136 (11760407_x_at) / RFU CLDN22 /// WWC2 (11732394_at) / Fold change /veh CLDN22 /// WWC2 (11732394_at) / RFU HLA-DPB1 (11760878_x_at) / Fold change /veh HLA-DPB1 (11760878_x_at) / RFU SPINT1 (11716480_a_at) / Fold change /veh SPINT1 (11716480_a_at) / RFU GAP43 (11754022_s_at) / Fold change /veh GAP43 (11754022_s_at) / RFU A4GNT (11735810_at) / Fold change /veh A4GNT (11735810_at) / RFU PRB3 (11715151_x_at) / Fold change /veh PRB3 (11715151_x_at) / RFU TUBB4B (11761932_at) / Fold change /veh TUBB4B (11761932_at) / RFU CAPN14 (11732068_a_at) / Fold change /veh CAPN14 (11732068_a_at) / RFU TMCC2 (11721928_a_at) / Fold change /veh TMCC2 (11721928_a_at) / RFU IRGQ (11745062_a_at) / Fold change /veh IRGQ (11745062_a_at) / RFU FAM174B (11720279_a_at) / Fold change /veh FAM174B (11720279_a_at) / RFU TMPRSS4 (11748680_a_at) / Fold change /veh TMPRSS4 (11748680_a_at) / RFU FAM212B (11763350_a_at) / Fold change /veh FAM212B (11763350_a_at) / RFU PLEKHG5 (11743358_a_at) / Fold change /veh PLEKHG5 (11743358_a_at) / RFU ZSCAN30 (11745921_a_at) / Fold change /veh ZSCAN30 (11745921_a_at) / RFU CMKLR1 (11741424_a_at) / Fold change /veh CMKLR1 (11741424_a_at) / RFU LOC101060620 /// MAPK8IP1 (11723275_at) / Fold change /veh LOC101060620 /// MAPK8IP1 (11723275_at) / RFU SPTSSB (11747773_x_at) / Fold change /veh SPTSSB (11747773_x_at) / RFU PRSS12 (11739890_at) / Fold change /veh PRSS12 (11739890_at) / RFU BIN1 (11741810_x_at) / Fold change /veh BIN1 (11741810_x_at) / RFU WNT11 (11732464_a_at) / Fold change /veh WNT11 (11732464_a_at) / RFU C10orf10 (11716521_a_at) / Fold change /veh C10orf10 (11716521_a_at) / RFU C5orf56 (11738089_at) / Fold change /veh C5orf56 (11738089_at) / RFU CYB561 (11721691_x_at) / Fold change /veh CYB561 (11721691_x_at) / RFU ANKRD19P (11752326_a_at) / Fold change /veh ANKRD19P (11752326_a_at) / RFU OR2T12 /// OR2T33 /// OR2T8 (11738714_s_at) / Fold change /veh OR2T12 /// OR2T33 /// OR2T8 (11738714_s_at) / RFU VCAN (11748164_a_at) / Fold change /veh VCAN (11748164_a_at) / RFU JSRP1 (11732532_at) / Fold change /veh JSRP1 (11732532_at) / RFU KRTAP10-11 (11738290_x_at) / Fold change /veh KRTAP10-11 (11738290_x_at) / RFU MYO3A (11730013_a_at) / Fold change /veh MYO3A (11730013_a_at) / RFU EBF3 (11725865_a_at) / Fold change /veh EBF3 (11725865_a_at) / RFU CAMK2N1 (11719241_x_at) / Fold change /veh CAMK2N1 (11719241_x_at) / RFU C5orf56 (11738088_a_at) / Fold change /veh C5orf56 (11738088_a_at) / RFU OLFML3 (11715873_a_at) / Fold change /veh OLFML3 (11715873_a_at) / RFU LOC100653217 /// NTM (11731650_a_at) / Fold change /veh LOC100653217 /// NTM (11731650_a_at) / RFU MAPK11 (11762145_a_at) / Fold change /veh MAPK11 (11762145_a_at) / RFU FIZ1 (11724087_x_at) / Fold change /veh FIZ1 (11724087_x_at) / RFU OASL (11726364_x_at) / Fold change /veh OASL (11726364_x_at) / RFU SOX15 (11748057_x_at) / Fold change /veh SOX15 (11748057_x_at) / RFU CD79A (11719716_a_at) / Fold change /veh CD79A (11719716_a_at) / RFU HIST1H1D (11736915_at) / Fold change /veh HIST1H1D (11736915_at) / RFU CASKIN2 (11723855_a_at) / Fold change /veh CASKIN2 (11723855_a_at) / RFU LOC730098 (11760151_x_at) / Fold change /veh LOC730098 (11760151_x_at) / RFU OR4N2 (11742367_at) / Fold change /veh OR4N2 (11742367_at) / RFU PRRT2 (11749266_a_at) / Fold change /veh PRRT2 (11749266_a_at) / RFU SNX32 (11753110_a_at) / Fold change /veh SNX32 (11753110_a_at) / RFU CDHR5 (11726645_a_at) / Fold change /veh CDHR5 (11726645_a_at) / RFU RCAN1 (11760418_a_at) / Fold change /veh RCAN1 (11760418_a_at) / RFU FAM167A (11723789_a_at) / Fold change /veh FAM167A (11723789_a_at) / RFU FAM26E (11764081_at) / Fold change /veh FAM26E (11764081_at) / RFU ISYNA1 (11749810_s_at) / Fold change /veh ISYNA1 (11749810_s_at) / RFU ACY1 (11761880_at) / Fold change /veh ACY1 (11761880_at) / RFU 11764098_at / Fold change /veh 11764098_at / RFU SAMD14 (11745864_x_at) / Fold change /veh SAMD14 (11745864_x_at) / RFU NPB (11741838_a_at) / Fold change /veh NPB (11741838_a_at) / RFU TMPRSS6 (11731388_a_at) / Fold change /veh TMPRSS6 (11731388_a_at) / RFU KRTAP10-2 (11738614_at) / Fold change /veh KRTAP10-2 (11738614_at) / RFU ARHGAP8 /// PRR5-ARHGAP8 (11727945_x_at) / Fold change /veh ARHGAP8 /// PRR5-ARHGAP8 (11727945_x_at) / RFU KRTAP5-7 /// NADSYN1 (11734609_at) / Fold change /veh KRTAP5-7 /// NADSYN1 (11734609_at) / RFU RASL12 (11751679_a_at) / Fold change /veh RASL12 (11751679_a_at) / RFU CDKN2B (11736163_a_at) / Fold change /veh CDKN2B (11736163_a_at) / RFU PRF1 (11729649_at) / Fold change /veh PRF1 (11729649_at) / RFU, ZNF638 /// ZNF638-IT1 / Fold change vs veh, ZNF638 /// ZNF638-IT1 / RFU, PANK3 / Fold change vs veh, PANK3 / RFU, SH3YL1 / Fold change vs veh, SH3YL1 / RFU, ZEB2 / Fold change vs veh, ZEB2 / RFU, NRIP1 / Fold change vs veh, NRIP1 / RFU, PTTG1IP / Fold change vs veh, PTTG1IP / RFU, CAPN2 / Fold change vs veh, CAPN2 / RFU, MED14 / Fold change vs veh, MED14 / RFU, SNORA58 / Fold change vs veh, SNORA58 / RFU, C1orf63 / Fold change vs veh, C1orf63 / RFU, LRRFIP1 / Fold change vs veh, LRRFIP1 / RFU, NDUFAF7 / Fold change vs veh, NDUFAF7 / RFU, SLC12A2 / Fold change vs veh, SLC12A2 / RFU, IBTK / Fold change vs veh, IBTK / RFU, ESF1 / Fold change vs veh, ESF1 / Fold change vs veh, TMEM50B / RFU, TAOK1 / Fold change vs veh, TAOK1 / RFU, ACBD3 / Fold change vs veh, ACBD3 / RFU, TMA16 / Fold change vs veh, TMA16 / RFU, RWDD3 / Fold change vs veh, RWDD3 / RFU, BCAT1 / Fold change vs veh, BCAT1 / RFU, EDEM3 / Fold change vs veh, EDEM3 / RFU, TMEM33 / Fold change vs veh, TMEM33 / RFU, WDR75 / Fold change vs veh, WDR75 / RFU, AHCTF1 / Fold change vs veh, AHCTF1 / RFU, TFRC / Fold change vs veh, TFRC / RFU, ZDHHC17 / Fold change vs veh, ZDHHC17 / RFU, NOM1 / Fold change vs veh, NOM1 / RFU, ARL8B / Fold change vs veh, ARL8B / RFU, ZBTB11 / Fold change vs veh, ZBTB11 / RFU, TAMM41 / Fold change vs veh, TAMM41 / RFU, KIAA1704 /// LOC100996395 / Fold change vs veh, KIAA1704 /// LOC100996395 / RFU, ING1 / Fold change vs veh, ING1 / RFU, TRMT61B / Fold change vs veh, TRMT61B / RFU, FUBP3 / Fold change vs veh, FUBP3 / RFU, TP53 / Fold change vs veh, TP53 / RFU, TNKS2 / Fold change vs veh, TNKS2 / RFU, ZFP14 / Fold change vs veh, ZFP14 / RFU, ACTR2 / Fold change vs veh, ACTR2 / RFU, PPP3R1 / Fold change vs veh, PPP3R1 / RFU, PIK3R1 / Fold change vs veh, PIK3R1 / RFU, HNRNPA1 / Fold change vs veh, HNRNPA1 / RFU, RNF170 / Fold change vs veh, RNF170 / RFU, ZNF28 / Fold change vs veh, ZNF28 / RFU, RNGTT / Fold change vs veh, RNGTT / RFU, OGT / Fold change vs veh, OGT / RFU, BRD1 / Fold change vs veh, BRD1 / RFU, MARS / Fold change vs veh, MARS / RFU, ZNF655 / Fold change vs veh, ZNF655 / RFU, FAHD1 / Fold change vs veh, FAHD1 / RFU, BDP1 / Fold change vs veh, BDP1 / RFU, LRRCC1 / Fold change vs veh, LRRCC1 / RFU, ARID1A / Fold change vs veh, ARID1A / RFU, ZNF146 / Fold change vs veh, ZNF146 / RFU, ZNF330 / Fold change vs veh, ZNF330 / RFU, GPN3 / Fold change vs veh, GPN3 / RFU, C9orf123 / Fold change vs veh, C9orf123 / RFU, N4BP2L2 / Fold change vs veh, N4BP2L2 / RFU, ARFIP1 / Fold change vs veh, ARFIP1 / RFU, FAM179B / Fold change vs veh, FAM179B / RFU, BCL10 / Fold change vs veh, BCL10 / RFU, UHRF1BP1L / Fold change vs veh, UHRF1BP1L / RFU, BET1 / Fold change vs veh, BET1 / RFU, CNOT2 / Fold change vs veh, CNOT2 / RFU, ZNF268 / Fold change vs veh, ZNF268 / Fold change vs veh, ZNF507 / RFU, DGCR2 / Fold change vs veh, DGCR2 / RFU, WDSUB1 / Fold change vs veh, WDSUB1 / Fold change vs veh, HSP90B1 /// MIR3652 / RFU, ADSS / Fold change vs veh, ADSS / RFU, GK / Fold change vs veh, GK / RFU, ZNF148 / Fold change vs veh, ZNF148 / RFU, TAF9 / Fold change vs veh, TAF9 / RFU, SLC1A5 / Fold change vs veh, SLC1A5 / RFU, SLMO2 / Fold change vs veh, SLMO2 / RFU, ABCC4 / Fold change vs veh, ABCC4 / RFU, LOC101060439 /// RAP1B / Fold change vs veh, LOC101060439 /// RAP1B / RFU, RFX7 / Fold change vs veh, RFX7 / RFU, GTPBP10 / Fold change vs veh, GTPBP10 / RFU, CNEP1R1 / Fold change vs veh, CNEP1R1 / RFU, BIVM-ERCC5 /// ERCC5 / Fold change vs veh, BIVM-ERCC5 /// ERCC5 / RFU, ILF3 / Fold change vs veh, ILF3 / RFU 11762660_at / Fold change /veh 11762660_at / RFU VCAN (11757783_s_at) / Fold change /veh VCAN (11757783_s_at) / RFU DDX43 (11728927_at) / Fold change /veh DDX43 (11728927_at) / RFU KRT8 (11758188_x_at) / Fold change /veh KRT8 (11758188_x_at) / RFU NKD1 (11759106_at) / Fold change /veh NKD1 (11759106_at) / RFU SRD5A1 (11742802_a_at) / Fold change /veh SRD5A1 (11742802_a_at) / RFU TPSAB1 /// TPSB2 (11721975_s_at) / Fold change /veh TPSAB1 /// TPSB2 (11721975_s_at) / RFU GSTM3 (11746129_a_at) / Fold change /veh GSTM3 (11746129_a_at) / RFU IL23R (11737362_x_at) / Fold change /veh IL23R (11737362_x_at) / RFU TMEM51 (11727254_a_at) / Fold change /veh TMEM51 (11727254_a_at) / RFU PIWIL2 (11732686_x_at) / Fold change /veh PIWIL2 (11732686_x_at) / RFU ORM1 (11744905_x_at) / Fold change /veh ORM1 (11744905_x_at) / RFU CCDC152 (11743942_at) / Fold change /veh CCDC152 (11743942_at) / RFU ECM1 (11717891_a_at) / Fold change /veh ECM1 (11717891_a_at) / RFU IL23R (11748794_a_at) / Fold change /veh IL23R (11748794_a_at) / RFU TNFAIP8L3 (11732012_x_at) / Fold change /veh TNFAIP8L3 (11732012_x_at) / RFU MBOAT4 (11741988_at) / Fold change /veh MBOAT4 (11741988_at) / RFU 11764193_at / Fold change /veh 11764193_at / RFU TMEM53 (11763286_at) / Fold change /veh TMEM53 (11763286_at) / RFU MAGEB2 (11727129_at) / Fold change /veh MAGEB2 (11727129_at) / RFU TMEM200A (11744735_a_at) / Fold change /veh TMEM200A (11744735_a_at) / RFU CCDC152 (11751479_a_at) / Fold change /veh CCDC152 (11751479_a_at) / RFU FAM211A (11726209_a_at) / Fold change /veh FAM211A (11726209_a_at) / RFU RGS16 (11746705_a_at) / Fold change /veh RGS16 (11746705_a_at) / RFU VCAN (11755009_s_at) / Fold change /veh VCAN (11755009_s_at) / RFU RHOB (11743442_s_at) / Fold change /veh RHOB (11743442_s_at) / RFU RGS16 (11720943_a_at) / Fold change /veh RGS16 (11720943_a_at) / RFU RGS16 (11720944_at) / Fold change /veh RGS16 (11720944_at) / RFU, VPS4B / Fold change vs veh, VPS4B / RFU, CREB1 / Fold change vs veh, CREB1 / RFU, DNAJC13 / Fold change vs veh, DNAJC13 / RFU, GNAQ / Fold change vs veh, GNAQ / RFU, CDK5R1 / Fold change vs veh, CDK5R1 / RFU, ZRANB3 / Fold change vs veh, ZRANB3 / RFU, CUL4A / Fold change vs veh, CUL4A / RFU, CCNY / Fold change vs veh, CCNY / RFU, UFL1 / Fold change vs veh, UFL1 / RFU, COG3 / Fold change vs veh, COG3 / RFU, DIAPH2 / Fold change vs veh, DIAPH2 / RFU, SKA2 / Fold change vs veh, SKA2 / RFU, AFF3 / Fold change vs veh, AFF3 / RFU, LMF1 / Fold change vs veh, LMF1 / RFU, IPO11 / Fold change vs veh, IPO11 / RFU, DFFB / Fold change vs veh, DFFB / RFU, FOXP1 / Fold change vs veh, FOXP1 / RFU, CARD8 / Fold change vs veh, CARD8 / RFU, STRN3 / Fold change vs veh, STRN3 / RFU, ADK / Fold change vs veh, ADK / RFU, RASSF2 / Fold change vs veh, RASSF2 / RFU, WIPF1 / Fold change vs veh, WIPF1 / RFU, LARP1B / Fold change vs veh, LARP1B / RFU, RASA1 / Fold change vs veh, RASA1 / RFU, RB1 / Fold change vs veh, RB1 / RFU, PPFIA1 / Fold change vs veh, PPFIA1 / RFU, MAT2A / Fold change vs veh, MAT2A / RFU, CCT5 / Fold change vs veh, CCT5 / RFU, WDR92 / Fold change vs veh, WDR92 / RFU, CUX1 / Fold change vs veh, CUX1 / RFU, TTC7A / Fold change vs veh, TTC7A / RFU, TMEM135 / Fold change vs veh, TMEM135 / RFU, DEPTOR / Fold change vs veh, DEPTOR / RFU, CPM / Fold change vs veh, CPM / RFU, DNAJB6 / Fold change vs veh, DNAJB6 / RFU, CACNA2D3 / Fold change vs veh, CACNA2D3 / RFU, DTX4 / Fold change vs veh, DTX4 / RFU, TFCP2 / Fold change vs veh, TFCP2 / RFU, GMCL1 /// GMCL1P1 / Fold change vs veh, GMCL1 /// GMCL1P1 / RFU, AEBP2 / Fold change vs veh, AEBP2 / RFU, SNHG1 /// SNORD22 /// SNORD25 /// SNORD26 /// SNORD27 /// SNORD28 /// SNORD29 /// SNORD31 / Fold change vs veh, SNHG1 /// SNORD22 /// SNORD25 /// SNORD26 /// SNORD27 /// SNORD28 /// SNORD29 /// SNORD31 / Fold change (Aza/veh), C12orf56 (ProbeSet 11735607_a_at) / Fold change (ACY-1035/veh), C12orf56 (ProbeSet 11735607_a_at) / Fold change (Aza/veh), FGFR1OP (ProbeSet 11751329_s_at) / Fold change (ACY-1035/veh), FGFR1OP (ProbeSet 11751329_s_at) / Fold change (Aza/veh), VPS36 (ProbeSet 11739960_a_at) / Fold change (ACY-1035/veh), VPS36 (ProbeSet 11739960_a_at) / RFU SYPL1 (11715823_x_at) / Fold change /veh SYPL1 (11715823_x_at) / RFU IGFBP7 (11715501_s_at) / Fold change /veh IGFBP7 (11715501_s_at) / RFU REEP3 (11722064_at) / Fold change /veh REEP3 (11722064_at) / RFU IGLL1 (11728026_x_at) / Fold change /veh IGLL1 (11728026_x_at): dose or concentration left out as unconfirmed.

The text below walks through data of paper PMC5218480 (PLoS ONE, 2017).

Structures are written as SMILES.

On to `Nc1ncn([C@@H]2O[C@H](CO)[C@@H](O)[C@H]2O)c(=O)n1` [azacitidine], for which the “RFU, UHRF1BP1L” value is recorded as 257.64 RFU.
